Values after ≈ are worked out from the molar mass of the structure shown. “Also recorded” adds a separate entry of the source.
What was measured:
Botrytis cinerea = assay: greenhouse tests against Botrytis cinerea; type: in vivo
Penicillium digitalum = assay: greenhouse tests against Penicillium digitalum; type: in vivo
Aspergillus nidulans [1] = assay: growth inhibition of Aspergillus nidulans; type: cell-based
Cephalosiorium = assay: sensitivity of Cephalosporium to CCFQ; type: cell-based
Neurospora = assay: sensitivity of Neurospora to CCFQ; type: cell-based
DHOD = DHOD in vitro tests; type: biochemical
[2] = biological target: T1, DHOD produced by mutant Aspergillus nidulans strains resistant to CCFQ (Aspergillus nidulans, UniProt G5EB61); assay: inhibition of DHOD produced by CCFQ-resistant mutant strains; type: biochemical; conditions: DHOD from resistant mutant A. nidulans
T1 construct: V200E (preferred, MNNG, FGSC612) or A115V (EMS, FGSC610)
T1 sequence (G5EB61 1-520): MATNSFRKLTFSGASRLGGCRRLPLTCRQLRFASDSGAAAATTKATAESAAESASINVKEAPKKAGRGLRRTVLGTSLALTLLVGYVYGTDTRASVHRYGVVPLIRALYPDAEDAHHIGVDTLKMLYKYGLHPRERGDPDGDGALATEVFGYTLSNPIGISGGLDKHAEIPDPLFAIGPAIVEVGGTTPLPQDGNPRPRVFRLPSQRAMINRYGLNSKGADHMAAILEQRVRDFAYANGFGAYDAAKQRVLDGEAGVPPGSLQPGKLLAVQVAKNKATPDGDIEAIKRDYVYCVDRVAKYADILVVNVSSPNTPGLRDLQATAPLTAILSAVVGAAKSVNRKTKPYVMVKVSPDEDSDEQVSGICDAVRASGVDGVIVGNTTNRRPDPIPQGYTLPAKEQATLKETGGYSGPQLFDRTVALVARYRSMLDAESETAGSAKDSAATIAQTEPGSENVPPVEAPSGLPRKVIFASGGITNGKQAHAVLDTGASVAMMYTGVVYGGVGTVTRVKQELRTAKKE

Aspergillus nidulans [3] = assay: physiological and biochemical responses of Aspergillus nidulans treated with CCFQ; type: cell-based
Excerpt: The physiological and biochemical responses caused by the experimental fungicide CCFQ are not characteristic of known modes of action. […] It causes an unusual effect on synthesis of nucleic acids in that incorporation of radiolabelled precursors is stimulated by treatment with CCFQ. […] Some media supplements overcame growth inhibition by CCFQ. […] All these observations are consistent with the primary target of CCFQ being an electron-transferring enzyme in the pyrimidine biosynthetic pathway. […] This is a novel fungicidal mode of action, and its discovery opens the opportunity to detect novel chemical compounds that attack the same target.

[4] = treatment of Aspergillus nidulans

SMILES: Fc1ccc(Oc2ccnc3c(Cl)cccc23)c(Cl)c1 [CCFQ, 8-chloro-4-(2-chloro-4-fluorophenoxy)quinoline]
- inhibition of Botrytis cinerea (Botrytis cinerea; 50 μg/ml, greenhouse tests): completely inhibits
- inhibition of growth of Botrytis cinerea (Botrytis cinerea; no concentration stated): completely inhibits
- inhibition of Penicillium digitalum (Penicillium digitalum; 50 μg/ml, greenhouse tests): completely inhibits
- inhibition of growth of Penicillium digitalum (Penicillium digitalum; no concentration stated): completely inhibits
- IC50 (Aspergillus nidulans [1]; against Aspergillus nidulans, read-out: IC50 (concentration that inhibits growth by 50%)): 0.15 µg/mL (≈ 0.487 µM)
- inhibition of growth of Aspergillus (Aspergillus nidulans [1]; no concentration stated): inhibits the growth
- sensitivity to CCFQ / growth inhibition (Cephalosiorium): inhibits the growth; also recorded: sensitive
- sensitivity to CCFQ / growth inhibition (Neurospora): inhibits the growth; also recorded: sensitive
- sensitivity of DHOD to CCFQ (DHOD): extremely sensitive
- inhibition of DHOD of CCFQ-resistant mutant strains [2]: resistant to inhibition
- reversal of growth inhibition by media supplements (Aspergillus nidulans [3]; combination of uracil and a free radical scavenger such as α-tocopherol): complete reversal
- change in amino acid content (Aspergillus nidulans [3]; [4]): no significant changes
- change in lipid composition (Aspergillus nidulans [3]; [4]): no significant changes
- change in protein accumulation (Aspergillus nidulans [3]; [4]): no significant changes
- change in respiration (Aspergillus nidulans [3]; [4]): no significant changes
- effect on cell wall synthesis (Aspergillus nidulans [3]; [4]): perturbs cell wall synthesis in a non-specific manner
- incorporation of radiolabelled precursors (synthesis of nucleic acids) (Aspergillus nidulans [3]; [4]): stimulated
